Measured values as given in patent EP1738740A2, “Use of benzyl-1,3-thiazolidine-2,4-dione compounds for favouring and/or inducing and/or stimulating the pigmentation of keratinic materials and/or for limiting their depigmentation and/or their bleaching” (L'Oreal, priority 2005, dated 2007).

Molecular target: T1, 15-PGDH de type 1 (Homo sapiens, UniProt P15428)
T1 sequence (P15428 1-266): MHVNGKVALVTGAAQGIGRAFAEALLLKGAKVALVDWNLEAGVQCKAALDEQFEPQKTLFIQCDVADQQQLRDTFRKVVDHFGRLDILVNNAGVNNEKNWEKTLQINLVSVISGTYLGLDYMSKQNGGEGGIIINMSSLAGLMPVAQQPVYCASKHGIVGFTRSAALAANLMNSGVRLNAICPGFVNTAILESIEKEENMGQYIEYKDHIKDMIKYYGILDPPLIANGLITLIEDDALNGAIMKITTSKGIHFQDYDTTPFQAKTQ
Assay: Test on 15-PGDH type 1: spectrophotometric enzyme inhibition, NADH formation at 340 nm with PGE2 and β-NAD
Type: biochemical
Details: concentration reducing the enzymatic activity of 15-PGDH by 50%; Tris 100 mM pH 7,4, 37°C, 50 µM Prostaglandine E2, 1,5 mM β-NAD
Protocol: L'enzyme 15-PGDH est obtenue comme décrit dans la demande FR 02/05067 déposée au nom de L'Oréal, en suspension dans un milieu adapté à une concentration de 0,3 mg/mL puis bloquée à - 80°C. Pour les besoins du test, cette suspension est décongelée et stockée dans de la glace.
Par ailleurs on prépare un tampon Tris 100 mM, pH = 7,4, contenant 0,1 mM de dithiothréitol (D5545, Sigma-Aldrich, L'isle D'Abeau Chesne, BP 701, 38297, Saint Quentin Fallavier), 1,5 mM de β-NAD (N6522, Sigma-Aldrich, L'isle D'Abeau Chesne, BP 701, 38297, Saint Quentin Fallavier), 50 µM de Prostaglandine E2 (P4172, Sigma-Aldrich, L'isle D'Abeau Chesne, BP 701, 38297, Saint Quentin Fallavier).
Dans la cuve d'un spectrophotomètre (Perkin-Elmer, Lambda 2) thermostaté à 37°C, dont la longueur d'onde de mesure est réglée à 340 nm, sont introduits 0,965 ml de ce tampon (préalablement porté à 37°C). 0,035 mL de suspension enzymatique à 37°C sont introduits dans la cuve concomitamment à l'enregistrement (correspondant à une augmentation de la densité optique à 340 nm). La vitesse maximale de réaction est relevée. […]

O=C1NC(=O)C(Cc2ccccc2Oc2ccc(Cl)cc2)S1 (stereo not shown) [compound 1]
IC50: 2200 nM
